In patent US20070238711A1, “Combination Therapy with Glatiramer Acetate and Minocycline for the Treatment of Multiple Sclerosis” (priority 2004, published 2007):
Where “and” joins values, the source holds several entries; their conditions need not be identical. Equal entries are not always repeated.

Assays:
EAE [1] = experiment: Experiment 3: high doses of glatiramer acetate and minocycline on EAE; type: in vivo, C57/BL6 mice; conditions: Copaxone 375 μg, minocycline 37.5 mg/kg
Description: The effects of all treatments versus the control are analyzed histologically (hematoxylin-eosin and Luxol fast blue for evidence of inflammation and demyelination, respectively). Cellular infiltrates are characterized by CD3, CD4, CD8, CD56 and CD19 immunohistochemistry. Blind evaluation (on a qualitative scale from + to ++++) is conducted on the following: the density of perivascular infiltrates, the distance of migration of leukocytes into the CNS parenchyma from blood vessels, and the degree of demyelination. The neuropathological assessments are focused on the optic nerve, lumbar cord and brainstem.

moderate EAE = experiment: Experiment 2: low doses of glatiramer acetate and minocycline on moderate EAE; type: in vivo, C57/BL6 mice; conditions: sub-optimal doses, FIG. 4
From the text: The protocol of Experiment 1 was followed. […] The number of mice in each group was as follows: 8 in the vehicle group, 11 in the minocycline group, 10 in the Copaxone® group, and 9 in the combination group.

EAE [2] = conditions: cited from earlier work
severe EAE = experiment: Experiment 1: low doses of glatiramer acetate and minocycline on severe EAE (MOG-induced); type: in vivo, C57/BL6 mice; design: key to EAE clinical score, individual mouse / EAE clinical score, group average (ave): composite score 0 = no symptoms, 14 = fully quadriplegic, 15 = death; key to Sum of Scores, individual mouse / Sum of Scores, group average (ave): sum of daily clinical scores (0–15 scale) over the experiment; conditions: for effect on clinical scores of EAE: severe EAE, sub-optimal doses, FIG. 2; for Sum of Scores, group average (ave) / Sum of Scores, individual mouse: sum of daily clinical scores over the entire experiment; for effect on disease severity: summary of Experiments 1-2, sub-optimal doses
Description: Intraperitoneal pertussis toxin was given on the day of MOG administration and also 2 days after. FIG. 1 presents a layout of the experimental design. Minocycline was administered intraperitoneally at a sub-optimal dose (25 mg/kg) when the first mouse in the entire experiment developed signs of EAE (See FIG. 1). Minocycline was administered daily until mice were sacrificed. […] Thus, we have developed a new system in order to better differentiate functional outcomes. […] For the tail: 0—no symptoms […] For each of the hind limbs or fore limbs, each assessed separately: 0—no symptoms […] Thus, a fully paralysed quadriplegic animal would attain a score of 14. […] Death is automatically given a score of 15. Another parameter that we have employed is the “sum of scores”. This refers to the addition of each daily clinical score over the entire period of the experiment. This is a reflection of the total burden of disease, and takes into account variations in onset of disease, and the daily scores.

multiple sclerosis = conditions: daily subcutaneous injections, 20 mg/injection; cited from earlier work
T lymphocytes = conditions: previous observation; cited from earlier work
R-R MS = conditions: versus placebo, 9-month trial; cited from earlier work
[3] = Day 0, 15-point scale, Copaxone 250 μg, minocycline 25 mg/kg i.p.

Row | Compound | effect on disease severity (EAE [1]) | effect on EAE severity / disease course (moderate EAE) | EAE clinical score, group average (ave) (severe EAE; Day 0) | EAE clinical score, individual mouse (severe EAE; [3]) | EAE clinical score, group average (ave) (severe EAE; Day 9) | EAE clinical score, individual mouse (severe EAE; Day 9) | EAE clinical score, group average (ave) (severe EAE; Day 10) | EAE clinical score, individual mouse (severe EAE; Day 10) | EAE clinical score, group average (ave) (severe EAE; Day 11) | EAE clinical score, individual mouse (severe EAE; Day 11) | EAE clinical score, group average (ave) (severe EAE; Day 12) | EAE clinical score, individual mouse (severe EAE; Day 12) | EAE clinical score, group average (ave) (severe EAE; Day 13) | EAE clinical score, individual mouse (severe EAE; Day 13) | EAE clinical score, group average (ave) (severe EAE; Day 14) | EAE clinical score, individual mouse (severe EAE; Day 14) | EAE clinical score, group average (ave) (severe EAE; Day 15) | EAE clinical score, individual mouse (severe EAE; Day 15) | EAE clinical score, group average (ave) (severe EAE; Day 16) | EAE clinical score, individual mouse (severe EAE; Day 16) | also measured
1 | CN(C)c1ccc(O)c2c1C[C@H]1C[C@H]3[C@H](N(C)C)C(O)=C(C(N)=O)C(=O)[C@@]3(O)C(O)=C1C2=O [Minocycline, [4S-(4∝,4a∝,5a∝,12a∝)]-4,7-bis(dimethylamino)-1,4,4a,5,5a,6,11,12a-octahydro-3,10,12,12a-tetrahydroxy-1,11-dioxo-2-naphthacenecarboxamide] | significantly decreases disease severity | did not elicit a clinical response | 0 | 0 | 4 | 3 (2×) and 4 (7×) | 4 | 4 (6×) and 6 (2×) and 3 | 6 | 8 and 5 and 6 (2×) and 7 (4×) and 4 | 7 | 7 (2×) and 6 and 9 and 8 (4×) and 4 | 8 | 7 and 9 (6×) and 4 and 10 | 9 | 8 (2×) and 10 (5×) and 4 and 9 | 9 | 11 and 10 (5×) and 9 and 4 and 6 | 9 | 11 and 10 (3×) and 8 (3×) and 9 and 3 | disease activity (EAE [2]; chronic relapsing remitting EAE): dramatically suppress disease activity; severity of disease (EAE [2]; mild EAE): attenuate the severity; course of disease (EAE [2]; severe EAE): delay the course; EAE clinical score, group average (ave) (severe EAE; Day 17): 8; EAE clinical score, individual mouse (severe EAE; Day 17): 10 (2×) and 8 (2×); EAE clinical score, group average (ave) (severe EAE; Day 18): 8; EAE clinical score, individual mouse (severe EAE; Day 18): 11 (2×) and 6; EAE clinical score, group average (ave) (severe EAE; Day 19): 7; EAE clinical score, individual mouse (severe EAE; Day 19): 8 and 11 and 6; EAE clinical score, group average (ave) (severe EAE; Day 20): 7; EAE clinical score, individual mouse (severe EAE; Day 20): 8 and 11 and 5; EAE clinical score, group average (ave) (severe EAE; Day 21): 7; EAE clinical score, individual mouse (severe EAE; Day 21): 7 and 9 and 5; EAE clinical score, group average (ave) (severe EAE; Day 22): 7; EAE clinical score, individual mouse (severe EAE; Day 22): 9 (2×) and 5; effect on clinical scores of EAE (severe EAE): ineffective; Sum of Scores, group average (ave) (severe EAE): 102.3; Sum of Scores, individual mouse (severe EAE): 112 and 121 and 93 and 109 (2×) and 55 and 102 and 122 and 98; effect on disease severity (severe EAE): did not markedly decrease disease severity
2 | L-glutamic acid polymer with L-alanine, L-lysine and L-tyrosine, acetate (salt) [Copaxone ®] | significantly decreases disease severity | slight attenuation of disease course | 0 | 0 | 1 | 0 (7×) and 3 and 2 | 1 | 0 (5×) and 3 (2×) and 1 and 2 | 3 | 0 (3×) and 4 (2×) and 7 and 8 and 2 and 6 | 4 | 0 (2×) and 5 (2×) and 7 (2×) and 2 and 6 and 8 | 6 | 0 (2×) and 9 (3×) and 5 and 8 (2×) and 7 | 7 | 3 and 8 (5×) and 10 and 0 and 6 | 8 | 4 and 10 (6×) and 0 and 8 | 7 | 8 (4×) and 10 (2×) and 11 and 0 and 3 | relapse rates, progression of disability, new MRI lesions, black holes (multiple sclerosis): reduce relapse rates; efficacy previously observed in the T cell transmigration assay (T lymphocytes): lack of efficacy; gadolinium-enhancing lesions progressing to persistent black holes (R-R MS): significantly fewer; EAE clinical score, group average (ave) (severe EAE; Day 17): 7; EAE clinical score, individual mouse (severe EAE; Day 17): 8 (2×) and 10 (2×); EAE clinical score, group average (ave) (severe EAE; Day 18): 7; EAE clinical score, individual mouse (severe EAE; Day 18): 9 and 8 and 10; EAE clinical score, group average (ave) (severe EAE; Day 19): 7; EAE clinical score, individual mouse (severe EAE; Day 19): 7 and 8 and 12; EAE clinical score, group average (ave) (severe EAE; Day 20): 6; EAE clinical score, individual mouse (severe EAE; Day 20): 5 and 8 and 11; EAE clinical score, group average (ave) (severe EAE; Day 21): 6; EAE clinical score, individual mouse (severe EAE; Day 21): 7 (2×) and 9; EAE clinical score, group average (ave) (severe EAE; Day 22): 6; EAE clinical score, individual mouse (severe EAE; Day 22): 5 (2×) and 9; effect on clinical scores of EAE (severe EAE): slight benefit; Sum of Scores, group average (ave) (severe EAE): 75.56; Sum of Scores, individual mouse (severe EAE): 56 and 88 and 117 and 95 and 0 and 100 and 87 (2×) and 50; effect on disease severity (severe EAE): did not markedly decrease disease severity
